Test results taken from patent publication US9701689B2, “Substituted pyridines and pyridazines as CCR10 receptor inhibitors” (KYOWA HAKKO KIRIN CO., LTD., priority 2012, dated 2017).

The compounds below were run against T1, human CCR10 (Homo sapiens, UniProt P46092) (assay: CCR10 antagonistic effect: calcium assay of human CCR10 (CTACK-induced increase of intracellular calcium in hCCR10G16 cells)). Conditions: at a concentration of not more than 1000 nmol/L; human CCR10-expressing hCCR10G16 cells, 300 nmol/L CTACK added; read-out: inhibition of increase in the calcium ion concentration.
T1 construct: expressed in transfected cells; host or cells: KJMGER8 cells (Namalwa cell-derived line), beta-estradiol-induced; hCCR10G16 cells
T1 sequence (P46092 1-362): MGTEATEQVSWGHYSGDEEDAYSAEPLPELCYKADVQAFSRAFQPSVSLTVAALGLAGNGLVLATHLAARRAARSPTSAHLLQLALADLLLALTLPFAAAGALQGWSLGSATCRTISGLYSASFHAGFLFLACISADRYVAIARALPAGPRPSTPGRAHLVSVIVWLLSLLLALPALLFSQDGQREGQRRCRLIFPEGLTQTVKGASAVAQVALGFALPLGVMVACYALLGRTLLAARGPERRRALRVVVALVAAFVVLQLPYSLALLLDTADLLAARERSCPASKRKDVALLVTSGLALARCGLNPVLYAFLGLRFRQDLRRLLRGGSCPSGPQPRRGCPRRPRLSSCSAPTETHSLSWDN
Assay type: cell-based
Summary of the method: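 KJMGER8-derived hCCR10G16 cells (CCR10 plus Gα16, induced 24 h with 10 nmol/L β-estradiol), Fluo-3 loaded, preincubated with compound 30 min at 37 °C. Stimulated with CTACK (300 nmol/L solution before addition); calcium read ~5 min by FDSS, max−min fluorescence; % inhibition vs control.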

| inhibition at up to 1 µM | SMILES |
| --- | --- |
| ≥ 50% | COc1cc(F)ccc1Nc1cc(S(N)(=O)=O)ncc1C(=O)N1CCC(c2ccc(F)cc2)CC1 [Compound 99, 4-(4-fluoro-2-methoxyphenylamino)-5-[4-(4-fluorophenyl)piperidine-1-carbonyl]pyridine-2-sulfonamide] |
| ≥ 50% | Cc1cc(C(F)(F)F)ccc1Nc1cc(S(N)(=O)=O)ncc1C(=O)N1CCC(c2ccc(F)cc2)CC1 [Compound 100, 5-[4-(4-fluorophenyl)piperidine-1-carbonyl]-4-[2-methyl-4-(trifluoromethyl)phenylamino]pyridine-2-sulfonamide] |
| ≥ 50% | NS(=O)(=O)c1cc(Nc2ccccc2F)c(C(=O)N2CCC(c3ccc(F)cc3)CC2)cn1 [Compound 102, 5-[4-(4-fluorophenyl)piperidine-1-carbonyl]-4-(2-fluorophenylamino)pyridine-2-sulfonamide] |
| ≥ 50% | NS(=O)(=O)c1cc(Nc2cccc(Cl)c2)c(C(=O)N2CCC(c3ccc(F)cc3)CC2)cn1 [Compound 103, 4-(3-chlorophenylamino)-5-[4-(4-fluorophenyl)piperidine-1-carbonyl]pyridine-2-sulfonamide] |
| ≥ 50% | COc1cc(C)c(Nc2cc(S(N)(=O)=O)ncc2C(=O)N2CCC(c3ccc(F)cc3)CC2)cc1Cl [Compound 104, 4-(5-chloro-4-methoxy-2-methylphenylamino)-5-[4-(4-fluorophenyl)piperidine-1-carbonyl]pyridine-2-sulfonamide] |
| ≥ 50% | Cc1cc(O)c(Cl)cc1Nc1cc(S(N)(=O)=O)ncc1C(=O)N1CCC(c2ccc(F)cc2)CC1 [Compound 105, 4-(5-chloro-4-hydroxy-2-methylphenylamino)-5-[4-(4-fluorophenyl)piperidine-1-carbonyl]pyridine-2-sulfonamide] |
| ≥ 50% | NS(=O)(=O)c1cc(Nc2ccc(OC(F)F)cc2)c(C(=O)N2CCC(c3ccc(F)cc3)CC2)cn1 [Compound 106, 4-[4-(difluoromethoxy)phenylamino]-5-[4-(4-fluorophenyl)piperidine-1-carbonyl]pyridine-2-sulfonamide] |
| ≥ 50% | Cc1ccc(Nc2cc(S(N)(=O)=O)ncc2C(=O)N2CCC(c3ccc(F)cc3)CC2)cc1C [Compound 107, 4-(3,4-dimethylphenylamino)-5-[4-(4-fluorophenyl)piperidine-1-carbonyl]pyridine-2-sulfonamide] |
| ≥ 50% | Cc1ccc(Cl)cc1Nc1cc(S(N)(=O)=O)ncc1C(=O)N1CCC(c2ccc(F)cc2)CC1 [Compound 109, 4-(5-chloro-2-methylphenylamino)-5-[4-(4-fluorophenyl)piperidine-1-carbonyl]pyridine-2-sulfonamide] |
| ≥ 50% | Cc1cc(C)cc(Nc2cc(S(N)(=O)=O)ncc2C(=O)N2CCC(c3ccc(F)cc3)CC2)c1 [Compound 110, 4-(3,5-dimethylphenylamino)-5-[4-(4-fluorophenyl)piperidine-1-carbonyl]pyridine-2-sulfonamide] |
| ≥ 50% | CNS(=O)(=O)c1cc(Nc2ccc(F)cc2C)c(C(=O)N2CCC(c3ccc(F)cc3)CC2)cn1 [Compound 111, 4-(4-fluoro-2-methylphenylamino)-5-[4-(4-fluorophenyl)piperidine-1-carbonyl]-N-methylpyridine-2-sulfonamide] |
| ≥ 50% | COCCNS(=O)(=O)c1cc(Nc2ccc(F)cc2C)c(C(=O)N2CCC(c3ccc(F)cc3)CC2)cn1 [Compound 112, 4-(4-fluoro-2-methylphenylamino)-5-[4-(4-fluorophenyl)piperidine-1-carbonyl]-N-(2-methoxyethyl)pyridine-2-sulfonamide] |
| ≥ 50% | COC(=O)C1CCCN1S(=O)(=O)c1cc(Nc2ccc(F)cc2C)c(C(=O)N2CCC(c3ccc(F)cc3)CC2)cn1 (stereo not shown) [Compound 116, methyl 1-{4-(4-fluoro-2-methylphenylamino)-5-[4-(4-fluorophenyl)piperidine-1-carbonyl]pyridin-2-ylsulfonyl}pyrrolidine-2-carboxylate] |
| ≥ 50% | CNC(=O)C1CCCN1S(=O)(=O)c1cc(Nc2ccc(F)cc2C)c(C(=O)N2CCC(c3ccc(F)cc3)CC2)cn1 (stereo not shown) [Compound 117, 1-{4-(4-fluoro-2-methylphenylamino)-5-[4-(4-fluorophenyl)piperidine-1-carbonyl]pyridin-2-ylsulfonyl}-N-methylpyrrolidine-2-carboxamide] |
| ≥ 50% | Cc1cc(F)ccc1Nc1cc(S(=O)(=O)N2CCCC2)ncc1C(=O)N1CCC(c2ccc(F)cc2)CC1 [Compound 119, [4-(4-fluoro-2-methylphenylamino)-6-(pyrrolidin-1-ylsulfonyl)pyridin-3-yl][4-(4-fluorophenyl)piperidin-1-yl]methanone] |
| ≥ 50% | Cc1cc(F)ccc1Nc1cc(S(=O)(=O)N2CCCC2C(=O)O)ncc1C(=O)N1CCC(c2ccc(F)cc2)CC1 (stereo not shown) [Compound 120, 1-{4-(4-fluoro-2-methylphenylamino)-5-[4-(4-fluorophenyl)piperidine-1-carbonyl]pyridin-2-ylsulfonyl}pyrrolidine-2-carboxylic acid] |
| ≥ 50% | Cc1cc(F)ccc1Nc1cc(S(=O)(=O)N2CCCCC2)ncc1C(=O)N1CCC(c2ccc(F)cc2)CC1 [Compound 121, [4-(4-fluoro-2-methylphenylamino)-6-(piperidin-1-ylsulfonyl)pyridin-3-yl][4-(4-fluorophenyl)piperidin-1-yl]methanone] |
| ≥ 50% | Cc1cc(F)ccc1Nc1cc(S(=O)(=O)N2CCOCC2)ncc1C(=O)N1CCC(c2ccc(F)cc2)CC1 [Compound 122, [4-(4-fluoro-2-methylphenylamino)-6-(morpholinosulfonyl)pyridin-3-yl][4-(4-fluorophenyl)piperidin-1-yl]methanone] |
| ≥ 50% | Cc1cc(F)ccc1Nc1cc(S(=O)(=O)N2CCCC2C(N)=O)ncc1C(=O)N1CCC(c2ccc(F)cc2)CC1 (stereo not shown) [Compound 123, 1-{4-(4-fluoro-2-methylphenylamino)-5-[4-(4-fluorophenyl)piperidine-1-carbonyl]pyridin-2-ylsulfonyl}pyrrolidine-2-carboxamide] |
| ≥ 50% | CC(=O)N1CCN(S(=O)(=O)c2cc(Nc3ccc(F)cc3C)c(C(=O)N3CCC(c4ccc(F)cc4)CC3)cn2)CC1 [Compound 124, 1-{4-{4-(4-fluoro-2-methylphenylamino)-5-[4-(4-fluorophenyl)piperidine-1-carbonyl]pyridin-2-ylsulfonyl}piperazin-1-yl}ethanone] |
| ≥ 50% | Cc1cc(F)ccc1Nc1cc(S(=O)(=O)N(C)C)ncc1C(=O)N1CCC(c2ccc(F)cc2)CC1 [Compound 125, 4-(4-fluoro-2-methylphenylamino)-5-[4-(4-fluorophenyl)piperidine-1-carbonyl]-N,N-dimethylpyridine-2-sulfonamide] |
| ≥ 50% | Cc1cc(F)ccc1Nc1cc(S(=O)(=O)NCC(=O)N2CCOCC2)ncc1C(=O)N1CCC(c2ccc(F)cc2)CC1 [Compound 130, 4-(4-fluoro-2-methylphenylamino)-5-[4-(4-fluorophenyl)piperidine-1-carbonyl]-N-(2-morpholino-2-oxoethyl)pyridine-2-sulfonamide] |
| ≥ 50% | CC(=O)CNS(=O)(=O)c1cc(Nc2ccc(F)cc2C)c(C(=O)N2CCC(c3ccc(F)cc3)CC2)cn1 [Compound 131, 4-(4-fluoro-2-methylphenylamino)-5-[4-(4-fluorophenyl)piperidine-1-carbonyl]-N-(2-oxopropyl)pyridine-2-sulfonamide] |
| ≥ 50% | Cc1cnc(CNS(=O)(=O)c2cc(Nc3ccc(F)cc3C)c(C(=O)N3CCC(c4ccc(F)cc4)CC3)cn2)cn1 [Compound 134, 4-(4-fluoro-2-methylphenylamino)-5-[4-(4-fluorophenyl)piperidine-1-carbonyl]-N-[(5-methylpyrazin-2-yl)methyl]pyridine-2-sulfonamide] |
| ≥ 50% | Cc1cc(F)ccc1Nc1cc(S(=O)(=O)NCC#N)ncc1C(=O)N1CCC(c2ccc(F)cc2)CC1 [Compound 135, N-(cyanomethyl)-4-(4-fluoro-2-methylphenylamino)-5-[4-(4-fluorophenyl)piperidine-1-carbonyl]pyridine-2-sulfonamide] |
| ≥ 50% | CC(=O)NC1CCN(S(=O)(=O)c2cc(Nc3ccc(F)cc3C)c(C(=O)N3CCC(c4ccc(F)cc4)CC3)cn2)CC1 [Compound 136, N-{1-{4-(4-fluoro-2-methylphenylamino)-5-[4-(4-fluorophenyl)piperidine-1-carbonyl]pyridin-2-ylsulfonyl}piperidin-4-yl}acetamide] |
| ≥ 50% | Cc1cc(F)ccc1Nc1cc(S(=O)(=O)N2CCC(C(N)=O)CC2)ncc1C(=O)N1CCC(c2ccc(F)cc2)CC1 [Compound 138, 1-{4-(4-fluoro-2-methylphenylamino)-5-[4-(4-fluorophenyl)piperidine-1-carbonyl]pyridin-2-ylsulfonyl}piperidine-4-carboxamide] |
| ≥ 50% | CNC(=O)[C@@H]1C[C@@H](O)CN1S(=O)(=O)c1cc(Nc2ccc(F)cc2C)c(C(=O)N2CCC(c3ccc(F)cc3)CC2)cn1 [Compound 141, (2S,4R)-1-{4-(4-fluoro-2-methylphenylamino)-5-[4-(4-fluorophenyl)piperidine-1-carbonyl]pyridin-2-ylsulfonyl}-4-hydroxy-N-methylpyrrolidine-2-carboxamide] |
